Like-named read-outs stand apart in the source and are kept apart here.
Columns and labels:
[1] = system: HEK293T cell aminopeptidase activity (Ala-AMC cleavage); assay: Aminopeptidase assay with Ala-AMC in HEK293T cell extracts; format: biochemical, human; conditions: HEK293T cell extract; for effect on cleavage of Ala-AMC: 10 µM inhibitor; for residual amount of activity: 50 µM
Experimental: (§1) All enzyme assays described below were performed in the linear range of the assay, as determined from time-course studies. HEK293T cells were lysed by sonication in 50 mM TrisHCl buffer, pH 7.5, containing 40 mM KCl, 5 mM MgCl2, 0.5 mM ATP, and 1 mM DTT (Buffer 1).
(§2) To measure TPP2, the fluorescent substrate was Ala-Ala-Phe-AMC. Aminopeptidase (AP) assays were performed with Leu-AMC and Ala-AMC, which detect leucine aminopeptidase (LAP), puromycin-sensitive aminopeptidase (PSAP), and other enzymes. To measure the effect of aminopeptidase/proteasome inhibitors on cleavage of Ala-Ala-Phe-AMC and Leu-AMC, 1∶50 dilution of the cell extract was pre-incubated with the inhibitor and Buffer 1 for 30 min, followed by addition of 100 µM final concentration of the respective substrate. For Ala-AMC, the same dilution of the cell extract was pre-incubated with the inhibitor and 50 mM MOPS buffer, pH 7.5, containing 40 mM KCl, 5 mM MgCl2, 0.5 mM ATP, and 1 mM DTT (Buffer 2), followed by addition of 100 µM final concentration of the substrate. After incubation at 37°C for 1 hour, enzyme activity was quantified by fluorescence measurement of the substrate (380 nm excitation, 460 nm emission).
(§3) Figure 7 Effect of aminopeptidase inhibitors on Ala-AMC and Leu-AMC cleavage. HEK 293T cell extract (panels A–D) or recombinant PSAP (panels E–F) were treated with increasing concentrations of bestatin or puromycin for 30 minutes followed by the addition of substrate and incubation for 1 hour. Enzyme activity was determined by fluorescence measurement of AMC and expressed as percentage enzyme activity relative to the control without inhibitor. (A) Bestatin inhibition of HEK293T cell extract assayed with Ala-AMC. (B) Bestatin inhibition of HEK293T cell extract assayed with Leu-AMC. (C) Puromycin inhibition of HEK293T cell extract assayed with Ala-AMC. (D) Puromycin inhibition of HEK293T cell extract assayed with Leu-AMC. (E) Puromycin inhibition of purified PSAP assayed with Ala-AMC. (F) Puromycin inhibition of purified PSAP assayed with Leu-AMC. Error bars show standard error of mean (n = 4), points without error bars had error ranges smaller than the symbol size. Statistical analysis was performed using Student’s t-test: *, p≤0.05; **, p≤0.01; ***, p≤0.001; ns, no significant difference (p>0.05) versus the control.
(§4) Figure 8 Effect of proteasome inhibitors on Ala-AMC and Leu-AMC cleavage. HEK 293T cell extract or recombinant PSAP was treated with 10 µM of each of the proteasome inhibitors for 1 hour in addition to a 30 min pre-incubation without the substrate. Enzyme activity was determined by fluorescence measurement of AMC and expressed as percentage enzyme activity relative to the control without inhibitor. Panels A and B represent the effect of proteasome inhibitors on cleavage of Ala-AMC and Leu-AMC respectively, in HEK293T cell extract. […] Error bars show standard error of mean (n = 4). Statistical analysis was performed using Student’s t-test: *, p≤0.05; **, p≤0.01; ***, p≤0.001; ns, no significant difference (p>0.05) versus the control.

[2] = biological target: T1, recombinant human puromycin-sensitive aminopeptidase (PSAP, rhNPEPPS) (Homo sapiens, UniProt P55786); assay: Cleavage of Leu-AMC and Ala-AMC by purified recombinant PSAP; format: biochemical; conditions: for effect on cleavage of Ala-AMC by purified PSAP: 10 µM inhibitor
T1 construct: purchased R&D Systems
Experimental: To measure the effect of inhibitors on cleavage of Leu-AMC and Ala-AMC by purified PSAP, recombinant human PSAP (rhNPEPPS, R&D Systems) was diluted 1∶2000 in Buffer 2 containing 0.1 mg/ml BSA. The enzyme was pre-incubated with the inhibitor and Buffers 1 or 2, followed by addition of 100 µM final concentration of Leu-AMC (to the mix containing Buffer 1) and Ala-AMC (to the mix containing Buffer 2). After incubation at 37°C for 1 hour, PSAP activity was quantified by fluorescence measurement of the substrate (380 nm excitation, 460 nm emission).
as §3, §4

[3] = system: HEK293T cells; assay: Quantitative peptidomics (TMAB isotopic labels, LC-MS/MS) of inhibitor-treated HEK293T cells; format: cell-based, human; conditions: HEK293T cells
Experimental: (§5) HEK293T and SH-SY5Y cells were grown to 80–90% confluence in DMEM and RPMI supplemented with 10% fetal bovine serum and penicillin/streptomycin. A single plate of cells (150 mm×25 mm) was used for each group. At the start of the experiment, media were removed from the plates and cells were washed with DPBS (138 mM NaCl, 8.06 mM Na2HPO4, 2.67 mM KCl, 1.47 mM KH2PO4, 0.9 mM CaCl2 and 0.49 mM MgCl2). This was followed by addition of serum-free media containing the proteasome or aminopeptidase inhibitors, or 0.05% DMSO as a control for the inhibitors that were soluble in DMSO. Each experiment consisted of two control groups and two or three replicate groups of cells treated with one of the inhibitors. The cells were incubated at 37°C for 20 minutes, following which media containing the inhibitor was removed, cells were washed with DPBS, detached from the plate by scraping into DPBS (without trypsin), and centrifuged at 800×g for 5 min. The wash buffer was supplemented with the appropriate inhibitor at the same concentration as used for the treatment, thereby ensuring that the changes induced in peptide levels were not reversed during harvesting of cells due to possible dissociation of the reversible inhibitors. The wash time (including centrifugation) was 15 minutes, for a total treatment time of 35 minutes. After centrifugation, the cell pellet was resuspended in 1 ml of 80°C water and incubated in an 80°C water bath for 20 minutes to inactivate proteases. The mixture was again centrifuged (13,000×g, 30 min, 4°C) and was stored at −80°C overnight. For peptide extraction, the samples were thawed and centrifuged again. The lysate was subsequently cooled on ice and acidified with HCl to a final concentration of 10 mM. After 15 min incubation on ice, the lysate was centrifuged at 13,000×g for 30 min at 4°C. To the supernatant, 250 µL of dibasic sodium phosphate (0.4 M, pH 9.5) was added and the mixture was stored at −80°C until labeling.
(§6) The labeling protocol has been earlier described in detail. Each group within an experiment (control/treated) was labeled with a different isotopic tag. The TMAB-NHS labels were dissolved in DMSO to a concentration of 400 µg/µL and 15 mg of label was used per 150 mm plate of cells. […] At the beginning, the pH of the peptide extract was adjusted to 9.5 with 1 M NaOH. Labeling was performed over 8 rounds; 4.69 µL of the label was added to the extract every 20 min. The pH was measured between each round and if necessary, brought back to 9.5 for the first five rounds. For rounds 6–8, the pH was not adjusted after the addition of the TMAB-NHS reagent. After the final round of label addition, the pH was adjusted to 9.5 again and the extracts were incubated at room temperature for 90 min. Thereafter, 30 µL of 2.5 M glycine was added to quench any unreacted label. Following 40 min incubation at room temperature, the labeled extracts for a single experiment were pooled and filtered through Amicon Ultracel-10 K units. It is important to ensure that only N-terminal amines and lysine side-chain amines of peptides are TMAB-labeled and not tyrosines. To hydrolyze any labeled tyrosine, 30 µL of a 2 M solution of hydroxylamine hydrochloride (pH 3.7) was added over three rounds to the pooled and filtered sample. The pH was measured after the addition of hydroxylamine and adjusted to 9.0 with 1 M NaOH. The samples were desalted through PepClean C-18 spin columns (Thermo Scientific, Rockford, IL, USA) by following manufacturer’s instructions. Peptides were eluted using 160 µL of 0.5% TFA and 70% acetonitrile, frozen at −80°C and then lyophilized in a vacuum centrifuge and stored at −80°C until analysis by mass spectrometry.
(§7) The LC-MS/MS experiments were performed on a Synapt G2 mass spectrometer coupled to a NanoAcquity capillary liquid chromatography system (Waters Co., Milford, MA, USA).

[4] = system: SH-SY5Y cells; assay: Quantitative peptidomics (TMAB isotopic labels, LC-MS/MS) of inhibitor-treated SH-SY5Y cells; format: cell-based, human; conditions: SH-SY5Y cells, 35 min; 2.5 µM MG132, 1 µM other inhibitors
Experimental: as §5, §6, §7

[5] = system: HEK293T cell aminopeptidase activity (Leu-AMC cleavage); assay: Aminopeptidase assay with Leu-AMC in HEK293T cell extracts; format: biochemical, human; conditions: HEK293T cell extract; for effect on cleavage of Leu-AMC: 10 µM inhibitor
Experimental: as §1, §2, §3, §4

[6] = system: tripeptidyl peptidase 2 (TPP2); assay: Ala-Ala-Phe-AMC cleavage (TPP2 substrate) in HEK293T cell extracts; format: biochemical, human; conditions: HEK293T cell extract, micromolar concentrations
Experimental: as §1, §2
Enzyme activity was determined by fluorescence measurement of AMC and expressed as percentage enzyme activity relative to the control lacking inhibitor. […]

[7] = biological target: T2, proteasome (beta 5, chymotrypsin-like activity) in HEK293T cell extract (Homo sapiens, UniProt P20618+P28074); assay: Proteasome activity in HEK293T cell extracts with beta 5-selective substrate Suc-Leu-Leu-Val-Tyr-AMC; format: biochemical; conditions: Suc-Leu-Leu-Val-Tyr-AMC, 30 min pre-incubation, 1 hour, read-out: IC50, inhibition of proteasome activity
T2 construct: endogenous in cells; host or cells: HEK293T
Experimental: as §1
To measure proteasome activity, a 1∶50 dilution of the cell extract was pre-incubated with the inhibitor and Buffer 1 for 30 min, followed by addition of 100 µM final concentration of the proteasome substrate succinyl-Leu-Leu-Val-Tyr-7-amino-4-methylcoumarin (Suc-Leu-Leu-Val-Tyr-AMC). After incubation at 37°C for 1 hour, proteasomal activity was quantified by fluorescence measurement of the substrate (380 nm excitation, 460 nm emission).
Figure 2 Inhibition of proteasome activity in HEK293T cells with various proteasome inhibitors. HEK293T cell extract was treated with increasing concentrations of the indicated compound for […] and incubation for 1 hour […]. Enzyme activity was determined by fluorescence measurement of AMC. The resulting activity is expressed as percent enzyme activity relative to the control reaction without inhibitor.

[8] = system: HEK293T cells; conditions: cited from earlier work
[9] = 35 min, 2.5 µM MG132, 1 µM other inhibitors

T1 sequence (P55786 whole entry): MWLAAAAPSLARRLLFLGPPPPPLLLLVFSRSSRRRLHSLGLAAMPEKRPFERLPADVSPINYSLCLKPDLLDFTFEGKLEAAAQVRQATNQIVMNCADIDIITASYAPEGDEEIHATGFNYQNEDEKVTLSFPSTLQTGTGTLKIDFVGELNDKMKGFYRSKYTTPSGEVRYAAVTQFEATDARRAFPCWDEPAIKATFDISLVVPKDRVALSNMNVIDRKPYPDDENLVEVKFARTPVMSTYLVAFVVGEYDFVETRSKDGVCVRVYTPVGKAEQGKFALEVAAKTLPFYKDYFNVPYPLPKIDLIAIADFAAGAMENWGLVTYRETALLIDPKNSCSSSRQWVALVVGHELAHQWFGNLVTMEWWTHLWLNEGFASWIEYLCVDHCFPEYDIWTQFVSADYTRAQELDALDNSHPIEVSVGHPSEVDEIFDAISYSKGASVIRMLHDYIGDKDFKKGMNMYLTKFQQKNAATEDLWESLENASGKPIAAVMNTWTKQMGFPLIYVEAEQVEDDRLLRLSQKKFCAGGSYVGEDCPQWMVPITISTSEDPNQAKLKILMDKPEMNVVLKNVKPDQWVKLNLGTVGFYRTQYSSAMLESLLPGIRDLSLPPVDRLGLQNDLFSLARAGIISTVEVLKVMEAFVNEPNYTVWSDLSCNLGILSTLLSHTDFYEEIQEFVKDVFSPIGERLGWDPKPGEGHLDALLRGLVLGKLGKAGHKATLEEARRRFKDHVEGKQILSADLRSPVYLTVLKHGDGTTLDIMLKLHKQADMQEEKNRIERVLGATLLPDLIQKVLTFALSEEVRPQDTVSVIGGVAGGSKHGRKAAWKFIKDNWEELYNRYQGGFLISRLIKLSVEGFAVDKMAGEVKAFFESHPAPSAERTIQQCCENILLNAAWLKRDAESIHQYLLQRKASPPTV

SMILES: CC(C)C[C@H](NC(=O)[C@H](CC(C)C)NC(=O)[C@H](CC(C)C)NC(=O)OCc1ccccc1)B(O)O [MG262]
- effect on cleavage of Ala-AMC [1]: inhibit
- effect on cleavage of Ala-AMC by purified PSAP [2]: inhibitory
- change in levels of intracellular peptides (peptidome) [3, 9]: changes that were generally similar to those caused by 500 nM bortezomib
- change in levels of intracellular peptides (peptidome) [4]: changes that were generally similar to those caused by 500 nM bortezomib
- effect on cleavage of Leu-AMC [5]: inhibit

SMILES: CC(C)C[C@H](NC(=O)CNC(=O)c1cc(Cl)ccc1Cl)B(O)O [MLN2238]
- effect on cleavage of Ala-AMC [1]: inhibit
- effect on cleavage of Ala-AMC by purified PSAP [2]: inhibitory
- change in levels of intracellular peptides (peptidome) [3, 9]: the majority of peptides was greatly decreased
- effect on cleavage of Leu-AMC [5]: inhibit

SMILES: CC(C)C[C@H](NC(=O)[C@@H](O)[C@H](N)Cc1ccccc1)C(=O)O [bestatin]
- inhibition of Ala-AMC cleavage [1]: > 80%
- residual amount of activity [1]: ~20%
- Enzyme activity (% control with no inhibitor) ([1]; Ala-AMC, bestatin 500 µM, bortezomib 0): 15.5±0.7 % control with no inhibitor
- inhibition of Leu-AMC cleavage [5]: > 80%

SMILES: CCCCNC(=O)[C@@H]1Cc2ccccc2N1C(=O)[C@@H](N)CC [butabindide, reference compound]
- inhibition of Ala-Ala-Phe-AMC cleavage [6]: Approximately 50%
- change in levels of intracellular peptides (peptidome) ([3]; 100 µM bestatin methyl ester 75 min, 100 µM butabindide 35 or 75 min, bestatin): failed to substantially alter the peptide levels

SMILES: CC(C)[C@H](O)[C@@]12NC(=O)[C@H](C)[C@@H]1OC2=O [clasto-Lactacystin β-lactone, reference compound]
- IC50 [7]: ~10 µM
- change in levels of intracellular peptides (peptidome) [3, 9]: the majority of peptides was greatly decreased

SMILES: CC[C@H](C)[C@H](NC(=O)[C@H]([C@@H](C)CC)N(C)C(C)=O)C(=O)N[C@H](C(=O)N[C@@H](CC(C)C)C(=O)[C@@]1(C)CO1)[C@@H](C)O [epoxomicin]
- change in levels of intracellular peptides (peptidome) ([8]; HEK293T cells, 0.2 µM for 1 hour): the majority of peptides was greatly decreased
- levels of peptides arising from cleavage at beta 1 sites ([8]; cells treated for 1 hour with 2 µM): greatly elevated

SMILES: COc1ccc(C[C@H](N)C(=O)N[C@H]2[C@@H](O)[C@H](n3cnc4c(N(C)C)ncnc43)O[C@@H]2CO)cc1 [puromycin]
- inhibition of Ala-AMC cleavage [1]: > 80%
- residual amount of activity [1]: ~20%
- potency on purified PSAP versus HEK293T cell extract ([2]; Ala-AMC and Leu-AMC): comparable
- inhibition of Leu-AMC cleavage [5]: > 80%

From publication PMC4117522, “Proteasome Inhibitors Alter Levels of Intracellular Peptides in HEK293T and SH-SY5Y Cells” (PLoS ONE, 2014)
